Laboratory results published in EP4790066A1, “GLP-1R/GIPR/GCGR TRIPLE AGONIST ANALOGUE AND USE THEREOF” (Shenzhen Bay Laboratory, priority 2023, dated 2025).
*1 amine or outer side, *2 acyl side, *3 side chain or, on linkers, in order; H or OH if unused. Where a SMILES comes first, the peptide text is derived from it. Bridges are numbered along the chain shown (N, C = ends). [ ]: non-standard residue; d: D form. X1 = O=C(O)CCCCCCCCCCCCCCCCCCC(=O)N[C@@H](CCCCNC(=O)COCCOCCNC(=O)COCCOCCNC(=O)CCC(=O)N(CCNC(=O)C[*:1])CCNC(=O)C[*:2])C(=O)O; Phe(2-F) = N[C@@H](Cc1ccccc1F)C(=O)O; Iva = CC[C@](C)(N)C(=O)O; Aib = CC(C)(N)C(=O)O

How the values were obtained:
Type in all cases: cell-based
GIPR [1] = molecular target: T1, GIPR (Homo sapiens, UniProt P48546); assay: cAMP method (HTRF cAMP detection kit), HEK293/pGM-CREB-L-Luc/GIP pool; conditions: read-out: EC50 (pM) for each receptor GIPR
T1 construct: expressed in transfected cells
T1 sequence (P48546 22-466): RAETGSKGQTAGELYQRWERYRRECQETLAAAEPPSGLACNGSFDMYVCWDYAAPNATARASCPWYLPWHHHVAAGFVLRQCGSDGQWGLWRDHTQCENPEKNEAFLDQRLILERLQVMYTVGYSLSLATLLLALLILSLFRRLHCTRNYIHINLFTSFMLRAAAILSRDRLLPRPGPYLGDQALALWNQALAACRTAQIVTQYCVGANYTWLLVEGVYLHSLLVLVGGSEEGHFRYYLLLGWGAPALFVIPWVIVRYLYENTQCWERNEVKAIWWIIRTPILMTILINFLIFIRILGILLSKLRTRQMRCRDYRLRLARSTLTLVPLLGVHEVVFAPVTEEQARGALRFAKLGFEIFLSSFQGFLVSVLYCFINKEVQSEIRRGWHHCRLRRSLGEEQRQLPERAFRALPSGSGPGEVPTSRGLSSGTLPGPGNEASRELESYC

GIPR [2] = molecular target: T1, GIPR; assay: CreLuc method (CRE-luciferase reporter), HEK293/pGM-CREB-L-Luc/GIPR pool; conditions: 6 h incubation, read-out: EC50 (pM) for each receptor GIPR
How it was run: (§1)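 Stable HEK293 pools co-expressing each receptor with a CRE-luciferase reporter were plated at 20,000 cells/well in freestyle medium and treated with compound dilution series for 6 h at 37 °C. Luminescence was read with ONE-GLO to derive EC50.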

GCGR = molecular target: T2, GCGR (Homo sapiens, UniProt P47871); assay: CreLuc method (CRE-luciferase reporter), 293HEK/pGM-CREB-L-Luc/GCGR pool; conditions: 6 h incubation, read-out: EC50 (pM) for each receptor GCGR
T2 construct: expressed in transfected cells
T2 sequence (P47871 26-477, species assumed): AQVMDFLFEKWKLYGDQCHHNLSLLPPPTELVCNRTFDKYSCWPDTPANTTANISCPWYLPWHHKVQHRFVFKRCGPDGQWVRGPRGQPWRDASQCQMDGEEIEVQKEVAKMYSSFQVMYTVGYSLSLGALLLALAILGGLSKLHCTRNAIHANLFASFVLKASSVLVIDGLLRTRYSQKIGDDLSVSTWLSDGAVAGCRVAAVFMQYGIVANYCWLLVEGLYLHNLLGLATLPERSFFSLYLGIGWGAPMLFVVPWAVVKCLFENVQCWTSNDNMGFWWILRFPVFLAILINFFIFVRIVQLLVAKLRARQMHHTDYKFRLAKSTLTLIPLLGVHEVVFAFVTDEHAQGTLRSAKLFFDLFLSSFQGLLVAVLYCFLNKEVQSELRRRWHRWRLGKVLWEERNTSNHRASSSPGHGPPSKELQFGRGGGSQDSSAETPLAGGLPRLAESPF
How it was run: as §1

GLP-1R [3] = molecular target: T3, GLP-1R (Homo sapiens, UniProt P43220); assay: cell-based; conditions: for EC50: GLP-1R CreLuc
T3 construct: expressed in transfected cells
T3 sequence (P43220 24-463, species assumed): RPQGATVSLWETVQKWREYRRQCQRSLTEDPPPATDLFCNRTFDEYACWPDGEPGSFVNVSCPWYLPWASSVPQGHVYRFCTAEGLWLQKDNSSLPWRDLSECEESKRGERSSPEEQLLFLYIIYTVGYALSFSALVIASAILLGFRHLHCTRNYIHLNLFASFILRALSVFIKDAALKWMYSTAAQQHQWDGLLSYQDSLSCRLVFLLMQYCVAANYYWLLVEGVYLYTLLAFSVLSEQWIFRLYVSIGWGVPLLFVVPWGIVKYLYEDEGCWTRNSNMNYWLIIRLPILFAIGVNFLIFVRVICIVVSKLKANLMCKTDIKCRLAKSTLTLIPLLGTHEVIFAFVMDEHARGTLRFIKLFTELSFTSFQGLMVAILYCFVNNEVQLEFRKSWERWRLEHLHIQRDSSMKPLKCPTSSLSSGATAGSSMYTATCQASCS
Experimental: The steps are as follows:
The stably transfected cell line HEK293/pGM-CREB-L-Luc/GLP-1R pool was constructed. […] The corresponding test cells were selected, digested (for 1 min), dispersed by pipetting, and centrifuged (1000 rpm, 5 min). The culture medium was discarded, and the cells were suspended using Freestyle culture medium, centrifuged and counted. The cells were diluted to a cell density of 5 x 10^5 cells/mL using freestyle culture medium (0% FBS) and culture medium containing 10% FBS, respectively. The cells were then added to the detection wells of a 384-well plate (40 µL/20,000 cells/well). Echo was used to add the corresponding analyte dilution series. The cell plate was incubated at 37°C and 5% CO2 for 6 h, and then ONE-GLO (20 µL/well) was added for detection. It was kept in the dark for 3 min, and then a chemiluminescent microplate reader was used for determination. The plate was read within 30 min, and the determination results were recorded. […]

GLP-1R [4] = molecular target: T3, GLP-1R; assay: cAMP method (HTRF cAMP detection kit), HEK293/pGM-CREB-L-Luc/GLP-1 pool; conditions: read-out: EC50 (pM) for each receptor GLP-1R

Question: Which results are given for `CC[C@H](C)[C@@H]1NC(=O)[C@H](Cc2ccccc2)NC(=O)[C@@H](NC(=O)C(C)(C)NC(=O)[C@H](CCC(N)=O)NC(=O)[C@H](C)NC(=O)[C@H](CCCCNC(C)=O)NC(=O)[C@H](CCCCN)NC(=O)[C@H](CC(=O)O)NC(=O)[C@H](CC(C)C)NC(=O)[C@](C)(CC)NC(=O)[C@@H](NC(=O)[C@H](CO)NC(=O)[C@H](Cc2ccc(O)cc2)NC(=O)[C@H](CC(=O)O)NC(=O)[C@H](CO)NC(=O)[C@@H](NC(=O)[C@H](Cc2ccccc2F)NC(=O)[C@@H](NC(=O)CNC(=O)[C@H](CCC(N)=O)NC(=O)C(C)(C)NC(=O)[C@@H](N)Cc2ccc(O)cc2)[C@@H](C)O)[C@@H](C)O)[C@@H](C)CC)CSCC(=O)NCCN(C(=O)CCC(=O)NCCOCCOCC(=O)NCCOCCOCC(=O)NCCCC[C@H](NC(=O)CCCCCCCCCCCCCCCCCCC(=O)O)C(=O)O)CCNC(=O)CSC[C@@H](C(=O)NCC(=O)NCC(=O)N2CCC[C@H]2C(=O)N[C@@H](CO)C(=O)N[C@@H](CO)C(=O)NCC(=O)N[C@@H](C)C(=O)N2CCC[C@H]2C(=O)N2CCC[C@H]2C(=O)N2CCC[C@H]2C(=O)N[C@@H](CO)C(N)=O)NC(=O)[C@H](CC(C)C)NC(=O)[C@H](CC(C)C)NC(=O)[C@H](Cc2ccc(O)cc2)NC(=O)[C@H](CCC(=O)O)NC1=O` [TG52] (H-Y[Aib]QGT[Phe(2-F)]TSDYSI[Iva]LDKK(Ac)AQ[Aib]CFIEYLLCGGPSSGAPPPS-NH2; linker 21-28 via X1)?
Answer: EC50 (GIPR [1]): 3.8 pM; EC50 (GIPR [2]): 18.9 pM; EC50 (GCGR): 173 pM; serum albumin binding capacity (GLP-1R [3]): a stronger serum albumin binding capacity; EC50 (GLP-1R [3]; EC50 (pM) 10% FBS, 10% FBS): 861 pM; EC50 (GLP-1R [3]; 0% FBS, read-out: EC50 (pM) 0% FBS): 13.1 pM; EC50 (GLP-1R [4]): 4.1 pM
